Assay results as given in patent US10144732B2 (BIOGEN MA INC., priority 2014, dated 2018).
Where a name gives a salt, the structure may show the parent alone. Read-outs that look alike come from different tables or passages of the source.

Target: T1, Human ATX protein (Homo sapiens, UniProt Q13822)
T1 construct: made in house
Experiment: ATX biochemical assay (FRET, FS-3 substrate)
Details: FS-3 2 μM, ATX 1.0 μg/mL, 30 minutes preincubation, 2 hours reaction at room temperature
In short: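 FRET read-out: cleavage of FS-3 (2 μM final) unquenches fluorescein, measured at 485/538 nm after 2 h at room temperature. Before substrate addition, in-house-expressed human autotaxin (1.0 μg/mL) sat with compound for 30 min in pH 7.4 Tris/NaCl/KCl/CaCl2/MgCl2 buffer containing fatty acid free-BSA at 1 mg/mL.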

Row | Structure (SMILES) | IC50 (FRET assay, read-out: IC50) [nM] | IC50 (IC50, FRET assay) [nM]
1 | CN(C(=O)N1CCc2c(C(F)(F)F)nn(Cc3ccc(Cl)cc3F)c2C1)[C@H]1CC[C@H](C(=O)O)CC1 [Example 5-10, trans-4-(1-(4-Chloro-2-fluorobenzyl)-N-methyl-3-(trifluoromethyl)-4,5,6,7-tetrahydro-1H-pyrazolo[3,4-c]pyridine-6-carboxamido)cyclohexanecarboxylic acid] | ≤ 100 | 
2 | CC1CCC(Cn2nc(C(F)(F)F)c3c2CN(C(=O)C[C@H]2CC[C@H](C(=O)O)CC2)CC3)CC1 (stereo partly drawn) [Example 5-37, trans-4-(2-(1-((4-Methylcyclohexyl)methyl)-3-(trifluoromethyl)-4,5-dihydro-1H-pyrazolo[3,4-c]pyridin-6(7H)-yl)-2-oxoethyl)cyclohexanecarboxylic acid] | ≤ 100 | 
3 | O=C(O)C1CC2CCCC(C1)N2CC(=O)N1CCc2c(C(F)(F)F)nn(Cc3ccc(F)cc3)c2C1 (stereo not drawn) [Example 13-6, 9-(2-(1-(4-Fluorobenzyl)-3-(trifluoromethyl)-4,5-dihydro-1H-pyrazolo[3,4-c]pyridin-6(7H)-yl)-2-oxoethyl)-9-azabicyclo[3.3.3.1]nonane-3-carboxylic acid] |  | ≤ 100
4 | O=C(C[C@H]1CC[C@H](C(=O)O)CC1)N1CCc2c(C(F)(F)F)nn(Cc3cccs3)c2C1 [Example 5-26, trans-4-(2-Oxo-2-(1-(thiophen-2-ylmethyl)-3-(trifluoromethyl)-4,5-dihydro-1H-pyrazolo[3,4-c]pyridin-6(7H)-yl)ethyl)cyclohexanecarboxylic acid] | ≤ 100 | 
5 | O=C(O)C1CCC(CC(=O)N2CCc3c(C(F)(F)F)nn(Cc4cccc(F)c4)c3C2)CC1 (mixture of isomers) [Example 6-1, 4-(2-(1-(3-Fluorobenzyl)-3-(trifluoromethyl)-4,5-dihydro-1H-pyrazolo[3,4-c]pyridin-6(7H)-yl)-2-oxoethyl)cyclohexanecarboxylic acid] | ≤ 100 | 
6 | O=C(CC1CNC1)N1CCc2c(C(F)(F)F)nn(Cc3ccc(Cl)cc3F)c2C1 [Example 9-3, 2-(Azetidin-3-yl)-1-(1-(4-chloro-2-fluorobenzyl)-3-(trifluoromethyl)-4,5-dihydro-1H-pyrazolo[3,4-c]pyridin-6(7H)-yl)ethanone TFA salt] | ≤ 100 | 

Now from value to compound, other results behind:

Row | IC50 (FRET assay, read-out: IC50) [nM] | Structure (SMILES) | IC50 (IC50, FRET assay) [nM]
7 | ≤ 100 | O=C(CCc1nnn[nH]1)N1CCc2c(C(F)(F)F)nn(Cc3ccc(F)cc3)c2C1 [Example 1-32, 1-(1-(4-Fluorobenzyl)-3-(trifluoromethyl)-4,5-dihydro-1H-pyrazolo[3,4-c]pyridin-6(7H)-yl)-3-(1H-tetrazol-5-yl)propan-1-one] | 
8 | ≤ 100 | CCC1CC(CC(=O)N2CCc3c(C(F)(F)F)nn(Cc4ccc(F)cc4)c3C2)CCN1C (stereo not drawn) [Example 10-7, 2-(2-Ethyl-1-methylpiperidin-4-yl)-1-(1-(4-fluorobenzyl)-3-(trifluoromethyl)-4,5-dihydro-1H-pyrazolo[3,4-c]pyridin-6(7H)-yl)ethanone TFA salt] | 
9 | ≤ 100 | O=C(CC1CCNC(C(F)(F)F)C1)N1CCc2c(C(F)(F)F)nn(Cc3ccc(F)cc3)c2C1 (stereo not drawn) [Example 9-13, 1-(1-(4-Fluorobenzyl)-3-(trifluoromethyl)-4,5-dihydro-1H-pyrazolo[3,4-c]pyridin-6(7H)-yl)-2-(2-(trifluoromethyl)piperidin-4-yl)ethanone TFA salt] | 
